# From publication PMC12661054, “The CIP2A-TOPBP1 axis facilitates mitotic DNA repair via MiDAS and MMEJ” (Nature Communications, 2025)
# “Also recorded” adds a separate entry of the source.
# System: SLX4 Thr1260
# Assay: SLX4 Thr1260 phosphorylation in mitotic HEK293TN cells (western blot)
# Assay type: cell-based, human
# Details: acute CDK1i (RO-3306 7 µM, 30 min) after 18 h 100 ng/ml nocodazole; eGFP-SLX4 or eGFP-TOPBP1 Co-IP
# Procedure: GFP-Trap® Agarose Co-immunoprecipitation
# HEK293TN cells were seeded to be ~25–30% confluence the next day in a 15 cm tissue culture dish. The following day cells were transfected using Lipofectamine 2000 transfection reagent (Thermo Fisher Scientific) with 24 µg of plasmid DNA encoding eGFP-SLX4 or eGFP-TOPBP1 expression cassettes following manufacturer’s instructions.
# Forty eight hours post transfection cells were harvested after treatments as described, snap frozen on dry ice and stored at −80 °C. Cell pellets were removed from −80 storage and thawed on ice in 2.4 ml IP buffer 1 (100 mM NaCl, 0.2% Igepal CA-630, 1 mM MgCl2, 10% glycerol, 5 mM NaF, 50 mM Tris-HCl, pH 7.5), supplemented with EDTA Free […] protease inhibitor (Sigma Aldrich) and 25 U ml−1 Benzonase (Novagen). Cells were resuspended and rotated at 4 °C for 90 min. Benzonase was then inhibited by adjusted NaCl concentration to 200 mM and with the addition of 2 mM EDTA, followed by rotation for a further 30 min at 4 °C on a carousel. The cell suspension was then centrifuged at 16,000 x g for 25 min at 4 °C. […] The supernatant, now containing eluted material, was transferred to a new 1.5 ml microcentrifuge tube ready for downstream western blot analysis.
smiles,measurement,value
O=C1NC(=NCc2cccs2)S/C1=C\c1ccc2ncccc2c1 [CDK1i],SLX4 Thr1260 phosphorylation,reduced; also recorded: marked reduction in SLX4 Thr1260 phosphorylation
